Literature values as cited in US6579851B2, “Effects of glucagon-like peptide-1 (7-36) on antro-pyloro-duodenal motility” (Amylin Pharmaceuticals, Inc., priority 2000, dated 2003).

Assays:
[1] = in vivo; cited from earlier work
[2] = tested on: gastroduodenal motility; details: cited from earlier work

In the case of Glucagon, the “Dose at which side effects (nausea and vomiting) can appear” value [1] is given as 1 mg, the “Effect on contractions in the antrum” value ([2]; doses as high as 2 mg) is given as “does not reduce contractions in the antrum” and the “Minimally effective dose for reduction in gastroduodenal motility” value ([2]; in vivo) is given as 0.5 mg.
